Experimental findings from PMC7170311 (Journal of Enzyme Inhibition and Medicinal Chemistry, 2020) are described below.

For the assay, the target named is T1, Gal4-DBD-RXRα-LBD (Homo sapiens, UniProt P19793).
T1 sequence (P19793 227-458 limits assumed): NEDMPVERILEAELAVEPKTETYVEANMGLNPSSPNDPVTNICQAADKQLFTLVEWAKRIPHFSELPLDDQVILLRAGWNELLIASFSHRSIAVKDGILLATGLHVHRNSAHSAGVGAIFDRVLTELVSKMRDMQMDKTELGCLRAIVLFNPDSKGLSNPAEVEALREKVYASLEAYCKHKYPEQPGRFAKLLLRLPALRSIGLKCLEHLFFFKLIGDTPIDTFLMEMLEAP
Briefly: cell-based. Particulars: HEK-293T, read-out: inhibition of 9-cis-RA-induced RXRα transactivation.

SMILES strings stand for the structures. Some results are limits rather than exact numbers.

Consider `Cc1ccc(NC(=O)NNC(=O)c2ccc(Nc3nccc(-c4cccnc4)n3)cc2)cc1` [Compound 6k, 2-(4-((4-(pyridin-3-yl)pyrimidin-2-yl)amino)benzoyl)-N-(p-tolyl)hydrazine-1-carboxamide], for which the inhibition (as a rule, the relative decrease from the control value, in per cent) at 1 µM was greater than 50%.
